Data: US9155724B2, “Combination methods for treatment of disease” (Whitehead Institute for Biomedical Research, priority 2010, dated 2015)
Counter-ions that a name gives are not always drawn. Each block holds one compound with its values, some of them ahead of it.

What was measured:
[1] = tested on: HL60 cells; details: read-out: IC50 on HL60 cells (growth inhibition); cited from earlier work
[2] = target: T1, c-Myc/Max (Mus musculus, UniProt P01108); test: Western blot of 10058-F4-treated mES cells; format: cell-based, murine
T1 construct: endogenous in cells; host or cells: V6.5 (C57BL/6-129) murine ES cells
Procedure: FIGS. 6A to 6E. c-Myc inhibition effects transcription at the pause release step. (A) RNA was extracted from mES cells treated with 10058-F4 or vehicle alone (DMSO) for 6 hours and used to generate cDNA using reverse transcription. Expression change was calculated for 10058-F4 treated cells compared vehicle alone control for two non-c-Myc target genes (Brg1, Rnf2-green) and five c-Myc target genes (Bax, Nol5, Zfp451, Brca2 and Atic—blue) from two independent experiments. Error bars represent s.d. from triplicate qPCR reactions. (B) mES cells were treated with 10058-F4 for either 1.5, 6 or 12 hours. Extracts were analyzed using Western blot using antibodies against Pol II Ser2P CTD, Pol II Ser5P CTD and Cdk9 to determine the levels of the modified forms of Pol II. TBP was used as a loading control. (C) Pol II ChIP-seq binding profiles in mES cells treated with 10058-F4 (c-Myc/Max inhibitor; blue), vehicle alone (black), or flavopiridol (P-TEFb inhibitor; red). Pol II occupancy is shown for three c-Myc target genes (Ncl, Npm1 and Nol5) and two non-cMyc target gene (Txnip and Chpf2). Cells were treated with 10058-F4 or DMSO for 6 hours. See also FIG. 14. (D) Average Pol II binding plots for the high confidence cMyc targets and non-c-Myc target genes in no drug (black), and 10058-F4 treatment (blue). […] The right panel is a close up of the transcribed region to show the difference in amounts of elongating Pol II density under the different conditions. […]
FIGS. 14A to 14F. […] Max ChIP DNA was analyzed using qPCR at the selected binding sites and enrichment was calculated for replicate PCR reactions over input DNA at each region. […] Protein extracts were analyzed using Western blots and probed with antibodies against CycT1 and Cdk9. […] ES cells were infected for 24 hours, then selected for 72 hours prior to harvesting. c-Myc levels were determined using RT-PCR analysis and normalized against a Gapdh control. […] ES cells were infected for 24 hours, then selected for 72 hours prior to harvesting. c-Myc levels were determined using Western blot analysis using an antibody against c-Myc. […]

[3] = target: T1, c-Myc/Max; test: Pol II ChIP-seq / traveling ratio in 10058-F4-treated mES cells; format: cell-based, murine; details: 50 μM for 6 hours
Procedure: FIGS. 6A to 6E. c-Myc inhibition effects transcription at the pause release step. (A) RNA was extracted from mES cells treated with 10058-F4 or vehicle alone (DMSO) for 6 hours and used to generate cDNA using reverse transcription. Expression change was calculated for 10058-F4 treated cells compared vehicle alone control for two non-c-Myc target genes (Brg1, Rnf2-green) and five c-Myc target genes (Bax, Nol5, Zfp451, Brca2 and Atic—blue) from two independent experiments. Error bars represent s.d. from triplicate qPCR reactions. (B) mES cells were treated with 10058-F4 for either 1.5, 6 or 12 hours. Extracts were analyzed using Western blot using antibodies against Pol II Ser2P CTD, Pol II Ser5P CTD and Cdk9 to determine the levels of the modified forms of Pol II. TBP was used as a loading control. (C) Pol II ChIP-seq binding profiles in mES cells treated with 10058-F4 (c-Myc/Max inhibitor; blue), vehicle alone (black), or flavopiridol (P-TEFb inhibitor; red). Pol II occupancy is shown for three c-Myc target genes (Ncl, Npm1 and Nol5) and two non-cMyc target gene (Txnip and Chpf2). Cells were treated with 10058-F4 or DMSO for 6 hours. See also FIG. 14. (D) Average Pol II binding plots for the high confidence cMyc targets and non-c-Myc target genes in no drug (black), and 10058-F4 treatment (blue). […] The right panel is a close up of the transcribed region to show the difference in amounts of elongating Pol II density under the different conditions. Also included in the right panel for comparison is elongating Pol II density following flavopiridol treatment (red). (E) Pol II traveling ratio (TR) as described in FIG. 1C for the high confidence c-Myc target genes and non-c-Myc target genes following 10058-F4 treatment (blue) or no drug (black). The left panel is the TR for the c-Myc targets and right panel is the TR for non-c-Myc targets. Higher TR values indicate a higher degree of pausing in this gene set.
If c-Myc regulates pause release, then inhibition by 10058-F4 should have an effect on Pol II levels in promoter and gene bodies similar to that of flavopiridol, but only at c-Myc occupied genes. […]
We carried out a more global analysis of the effect of 10058-F4 on Pol II occupancy of genes bound by c-Myc and compared these patterns to genes that are not bound by this factor but show evidence of elongation (FIG. 6D). […] A similar shift in TR at the c-Myc target genes was also detected following c-Myc shRNA knockdown, indicating genes become more paused (FIG. 14F). […]
RNAPolII—10058F4Treated_Tracks.WIG.gz—contains two ChIP-seq datasets mapped to mouse genome mm8 using a +200 bp extension model that can be uploaded to the UCSC genome browser to view binding events. The ChIP experiments were done using the N20 Pol II antibody (sc-899) to determined total Pol II occupancy. […]

[4] = target: T1, c-Myc/Max; test: expression analysis (quantitative PCR) in 10058-F4-treated mES cells; format: cell-based, murine; details: 50 μM for 6 hours
Procedure: FIGS. 6A to 6E. c-Myc inhibition effects transcription at the pause release step. (A) RNA was extracted from mES cells treated with 10058-F4 or vehicle alone (DMSO) for 6 hours and used to generate cDNA using reverse transcription. Expression change was calculated for 10058-F4 treated cells compared vehicle alone control for two non-c-Myc target genes (Brg1, Rnf2-green) and five c-Myc target genes (Bax, Nol5, Zfp451, Brca2 and Atic—blue) from two independent experiments. Error bars represent s.d. from triplicate qPCR reactions. (B) mES cells were treated with 10058-F4 for either 1.5, 6 or 12 hours. Extracts were analyzed using Western blot using antibodies against Pol II Ser2P CTD, Pol II Ser5P CTD and Cdk9 to determine the levels of the modified forms of Pol II. TBP was used as a loading control. […]
To more directly test whether c-Myc regulates pause release and the associated Pol II CTD phosphorylation at Ser2, we used a low molecular weight inhibitor of c-Myc/Max, 10058-F4, which inhibits c-Myc/Max heterodimerization both in vitro and in vivo (Hammoudeh et al., 2009; Wang et al., 2007; Yin et al., 2003). Max co-occupies c-Myc binding sites as determined by ChIP, confirming that c-Myc and Max function together at target genes in ES cells (FIG. 14A). […]

[5] = cited from earlier work
[6] = target: T2, P-TEFb (Mus musculus, UniProt Q99J95); test: Western blot of P-TEFb target phosphorylation in flavopiridol-treated mES cells; format: cell-based, murine; details: 1 μM flavopiridol, within 60 min
T2 construct: endogenous in cells; host or cells: V6.5 (C57BL/6-129) murine ES cells
Procedure: (A) mES cells were treated with 1 μM flavopiridol for the indicated time.
(A) mES cells were treated with the indicated flavopiridol concentration or DMSO alone (−), for 60 minutes.
To assess the role of P-TEFb-dependent pause release in global transcriptional control, we repeated the ChIP-Seq experiment for total Pol II in mES cells treated with flavopiridol, an inhibitor of Cdk9 kinase activity (Chao et al., 2000; Chao and Price, 2001; Ni et al., 2004).
V6.5 (C57BL/6-129) murine ES cells were grown under typical mES conditions on irradiated mouse embryonic fibroblasts (MEFs). […] For location analysis on mES cells following treatment with small molecule inhibitors, cells were grown two passages off feeders and prior to formaldehyde crosslinking, the cells were treated by addition of the indicated final concentration of flavopiridol (1 μM for 1 hour for ChIP-chip and ChIP-seq experiments, or the indicated concentration and time for Western blot analysis), or c-Myc/Max inhibitor 10058-F4 (50 μM for 6 hours), both dissolved in DMSO, to the growth medium. As a control, vehicle alone (DMSO) was added to the growth medium at the same final volume as with drug. Small molecule inhibitors used were: Flavopiridol (Sigma cat #F3055), and c-Myc inhibitor 10058-F4 (Sigma cat #F3680).
Western blots were done following standard protocols. Antibodies used for Western blots were as follows: Spt5: gift of Yuki Yamaguchi and Hiroshi Handa (Wada et al., 1998); NelfA: gift of Yuki Yamaguchi and Hiroshi Handa; Cdk9: Santa Cruz sc-484 and sc-8338, Ser2P Pol II: Abcam (H5 clone) ab24758; Ser5P Pol II: Abcam ab5131; Brg1: Santa Cruz sc-10768; Max: Santa Cruz sc-197; c-Myc: Santa Cruz-764; Cyclin T1: gift of David Price; Oct4: Santa Cruz sc-5279; and TBP: Abcam ab818.

[7] = target: T2, P-TEFb; test: Spt5 and NelfA ChIP-chip in flavopiridol-treated mES cells; format: cell-based, murine; details: flavopiridol for 60 minutes
Procedure: (A) Pairwise correlation analysis of Spt5, NelfA and Pol II (all) ChIP-seq occupancy in mES cells. […] (B) Western blot analysis of mES cells treated with 1 mM flavopiridol or control for 60 minutes prior. […] (C) Average gene binding for NelfA and Spt5 following 1 mM flavopiridol (red) or control (black) for 60 minutes in mES cells. The average ChIP-chip enrichment was determined in each bin (250 bp) in each condition and plotted from −4 kb to +2 kb.
We used ChIP-chip to determine if Spt5 and NelfA co-occupy promoter proximal sites with Pol II when P-TEFb activity is inhibited by flavopiridol.
Purified immunoprecipitated DNA was amplified using two rounds of ligation mediated PCR (LM PCR), as described in (Lee et al., 2006b) and the Agilent Mammalian ChIP-on-chip protocol (version 9.1, November 2006). LM-PCR immunoprecipitated DNA was labeled with Cy5, LM-PCR input DNA was labeled with Cy3 using Invitrogen Bioprime random primer labeling kit. For microarray hybridization, the Agilent Mammalian ChIP-on-chip protocol (version 9.1, November 2006) was followed. In brief, mouse Cotl DNA, Agilent blocking buffer (1× final conc.), Agilent hybridization buffer (1× final conc.), was added to Cy5- and Cy3-labeled DNA. The mixture was incubated at 95° C. for 3 minutes, followed by 37° C. for 30 minutes. Sample was centrifuged for 1 min and sample was hybridized to Agilent DNA microarray. […]

[8] = target: T2, P-TEFb; test: Pol II ChIP-seq / traveling ratio in flavopiridol-treated mES cells; format: cell-based, murine
Procedure: (A) mES cells were treated with 1 μM flavopiridol for the indicated time. […] (B) RNA Pol II (all) ChIP-seq analysis in mES cells treated with control (DMSO for 60 minutes, black) or flavopiridol (1 μM for 60 minutes, red). […] Higher TR values indicate a higher degree of pausing.
To assess the role of P-TEFb-dependent pause release in global transcriptional control, we repeated the ChIP-Seq experiment for total Pol II in mES cells treated with flavopiridol, an inhibitor of Cdk9 kinase activity (Chao et al., 2000; Chao and Price, 2001; Ni et al., 2004). […] If Pol II pause release is required at transcribed genes, we would expect that in the presence of flavopiridol, Pol II molecules would remain associated with promoter proximal pause sites but be depleted from DNA further downstream. […] We analyzed traveling ratios to further evaluate changes in Pol II occupancy genome-wide.
V6.5 (C57BL/6-129) murine ES cells were grown under typical mES conditions on irradiated mouse embryonic fibroblasts (MEFs). For location analysis, cells were grown for two passages off of MEFs, on gelatinized tissue-culture plates. […]
To quantify this effect, we have developed a measure called Traveling Ratio (TR) that compares the ratio between Pol II density in the promoter and in the gene region. […]

[9] = tested on: c-Myc-dependent oncogenic transformation of chicken embryo fibroblasts; details: at 20 μM; cited from earlier work
[10] = cited from earlier work; remark: listed apart in the source
[11] = target: c-Myc (Homo sapiens, UniProt P01106); details: relative to parent compound 10058-F4; cited from earlier work
[12] = ES cells treated with 10058-F4 for 1.5, 6 or 12 hours

T1 sequence (P01108 whole entry): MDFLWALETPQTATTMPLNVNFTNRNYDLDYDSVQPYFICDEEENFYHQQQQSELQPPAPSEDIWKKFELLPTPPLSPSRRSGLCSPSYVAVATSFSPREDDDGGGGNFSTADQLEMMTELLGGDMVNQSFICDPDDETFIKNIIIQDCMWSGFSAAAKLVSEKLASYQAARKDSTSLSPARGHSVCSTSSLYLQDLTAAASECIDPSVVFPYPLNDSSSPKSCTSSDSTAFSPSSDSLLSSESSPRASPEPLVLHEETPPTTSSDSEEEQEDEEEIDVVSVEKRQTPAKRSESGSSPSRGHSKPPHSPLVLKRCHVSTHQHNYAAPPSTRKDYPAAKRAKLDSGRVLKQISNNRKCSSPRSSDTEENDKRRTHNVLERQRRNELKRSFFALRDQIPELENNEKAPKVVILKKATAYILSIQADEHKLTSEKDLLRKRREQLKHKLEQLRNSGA
T2 sequence (Q99J95 whole entry): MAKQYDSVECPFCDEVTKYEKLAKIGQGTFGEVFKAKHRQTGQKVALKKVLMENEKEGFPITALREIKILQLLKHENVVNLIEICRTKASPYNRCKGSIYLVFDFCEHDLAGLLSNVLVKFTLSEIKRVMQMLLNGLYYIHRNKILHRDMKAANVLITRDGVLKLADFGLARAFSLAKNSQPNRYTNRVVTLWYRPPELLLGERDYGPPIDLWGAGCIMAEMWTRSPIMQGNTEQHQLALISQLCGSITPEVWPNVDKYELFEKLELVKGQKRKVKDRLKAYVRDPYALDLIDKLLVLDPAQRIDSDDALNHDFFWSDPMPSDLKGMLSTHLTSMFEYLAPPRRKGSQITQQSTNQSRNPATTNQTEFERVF
T2 sequence (Q9QWV9 whole entry partner): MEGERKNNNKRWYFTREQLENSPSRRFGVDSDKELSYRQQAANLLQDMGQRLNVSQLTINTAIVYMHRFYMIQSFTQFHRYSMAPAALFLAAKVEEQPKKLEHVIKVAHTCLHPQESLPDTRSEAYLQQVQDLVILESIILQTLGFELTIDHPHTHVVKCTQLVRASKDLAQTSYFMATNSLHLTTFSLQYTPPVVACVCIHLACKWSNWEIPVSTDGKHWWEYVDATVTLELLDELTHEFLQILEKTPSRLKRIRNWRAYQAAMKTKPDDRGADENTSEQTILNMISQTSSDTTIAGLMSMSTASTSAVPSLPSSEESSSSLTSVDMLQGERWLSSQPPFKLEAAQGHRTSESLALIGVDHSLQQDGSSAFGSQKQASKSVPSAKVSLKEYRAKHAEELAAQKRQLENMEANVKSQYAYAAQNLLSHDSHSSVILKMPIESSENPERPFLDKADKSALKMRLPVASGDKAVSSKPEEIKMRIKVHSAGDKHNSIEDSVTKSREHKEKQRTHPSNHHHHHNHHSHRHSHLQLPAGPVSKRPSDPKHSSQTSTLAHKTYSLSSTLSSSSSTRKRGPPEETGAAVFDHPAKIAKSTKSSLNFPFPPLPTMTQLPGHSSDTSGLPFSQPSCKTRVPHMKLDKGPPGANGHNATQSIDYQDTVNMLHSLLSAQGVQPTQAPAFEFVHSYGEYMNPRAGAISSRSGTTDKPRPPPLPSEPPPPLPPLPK
c-Myc, sequence (P01106 whole entry): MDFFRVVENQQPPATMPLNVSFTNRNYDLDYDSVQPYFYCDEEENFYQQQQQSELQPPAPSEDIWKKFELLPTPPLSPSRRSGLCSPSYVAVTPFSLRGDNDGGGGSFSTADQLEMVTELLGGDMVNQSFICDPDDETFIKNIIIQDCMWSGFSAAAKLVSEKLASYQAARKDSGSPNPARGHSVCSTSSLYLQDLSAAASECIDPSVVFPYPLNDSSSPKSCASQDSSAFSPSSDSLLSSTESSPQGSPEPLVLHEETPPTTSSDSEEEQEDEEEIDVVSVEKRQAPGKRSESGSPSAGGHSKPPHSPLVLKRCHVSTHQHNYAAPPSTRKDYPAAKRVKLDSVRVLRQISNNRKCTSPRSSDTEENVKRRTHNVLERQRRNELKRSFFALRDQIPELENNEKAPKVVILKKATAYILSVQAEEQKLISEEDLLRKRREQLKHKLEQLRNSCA

levels of Pol II Ser2P [2, 12]: significant reduction
levels of Pol II Ser5P [2, 12]: remained unaffected
protein levels of P-TEFb components Cdk9 or CycT1 ([2]; mES cells, 10058-F4 for 6 hours): did not alter
TR at c-Myc target genes [3]: substantial increase
TR at non-c-Myc targets [3]: no such shift
Pol II density in transcribed regions ([3]; c-Myc targets, gene body p=7.341e-06): clear reduction
Pol II density at promoters ([3]; c-Myc targets, p=0.4536): little effect
decrease in the expression of c-Myc target genes [4]: 20-40%
expression of two non-c-Myc target genes [4]: did not affect
SMILES: CCc1ccc(/C=C2\SC(=S)NC2=O)cc1 [10058-F4]
IC50 [1]: 49 µM

Ser5 phosphorylation of Pol II [6]: remained unaffected
phosphorylation of Pol II Ser2 [6]: reduced phosphorylation
phosphorylation of Spt5 [6]: reduced phosphorylation
Spt5 occupancy downstream of promoter proximal sites [7]: depleted
genes with a change in Pol II TR of at least 1.5 upon drug treatment ([8]; 1 μM for 60 minutes): 75%
pause release at genes that are not targets of c-Myc ([8]; flavopiridol treatment, Pol II ChIP-seq): block in pause release
SMILES: CN1CC[C@H](c2c(O)cc(O)c3c(=O)cc(-c4ccccc4Cl)oc23)[C@H](O)C1 [flavopiridol, (−)-2-(2-Chlorophenyl)-5,7-dihydroxy-8-[(3S,4R)-3-hydroxy-1-methyl-4-piperidinyl]-4H-1-benzopyran-4-one hydrochloride]
main side effects ([5]; doses achieving plasma levels of approximately 400 nM, 72 hour treatment): fatigue, venous thromboses, and diarrhea
plasma flavopiridol levels ([5]; during a 72 hour treatment period): approximately 400 nM

SMILES: COc1ccc(CN(C(=O)c2ccccn2)C(C(=O)NC2CCCCC2)c2ccc3cc(OCC(=O)OC(C)(C)C)ccc3c2)cc1 (centres unmarked) [NY2267]
inhibition of c-Myc-dependent oncogenic transformation [9]: strongly inhibited

SMILES: CC[C@H](CO)Nc1nc(NCc2ccccc2)c2ncn(C(C)C)c2n1 [roscovitine, 2-(R)-(1-Ethyl-2-hydroxyethylamino)-6-benzylamino-9-isopropyl purine]
dose-limiting toxicities ([10]; at 800 mg b.i.d.): grade 3 fatigue, grade 3 skin rash, grade 3 hyponatraemia and grade 4 hypokalaemia
dose at which dose-limiting toxicities were seen ([10]; patients with solid tumors, 7-day b.i.d. p.o. schedule): 800 mg b.i.d.

SMILES: CC(C)c1ccc(/C=C2\SC(=S)N(CN3CCCCC3)C2=O)cc1 [28RH-NCN-1]
IC50 [1]: 29 µM
inhibition of DNA binding of c-Myc [11]: comparable to that of the parent compound
